This is an account of results in patent publication US20230357162A1, “COMPOUNDS, COMPOSITIONS AND METHODS” (Denali Therapeutics Inc., priority 2020, published 2023).

The subject of the assay is IL-1β secretion, THP-1 cells. As to the kind of experiment: IL-1β secretion assay in PMA-differentiated THP-1 cells stimulated with LPS and nigericin (ELISA readout). Type of assay: cell-based. As to conditions: 25 ng/mL LPS then nigericin. Here is the method: Compounds as provided herein were tested in the following assay. Cell culture medium employed contained RPMI 1640 medium (89%), FBS (10%), Pen/Strep (1%), and 2-mercaptoethanol (0.05 mM). Freezing medium was made up of 90% FBS and 10% DMSO. THP-1 cells were removed from the liquid nitrogen and placed into a 37° C. water bath to thaw, until signs of ice dissipated. The cells were then added to 9 mL of warm cell culture medium and centrifuged for 5 minutes at 1000 rpm. The supernatant was discarded, and the cells were resuspended in new cell culture medium. THP-1 cells were then split and cultured in the cell culture medium, being passaged every 2-3 days with the cell density will be maintained between 5×10^5 and 1.5×10^6 viable cells/mL.
PMA was dissolved in DMSO to make a stock solution at 5 mg/ml and stored in 10 µl aliquots at -20° C. for single use. PMA is added to normal growth medium. LPS was diluted with 1 mL of water solution to provide a 1 mg/mL stock solution and stored in 15 µl aliquots at -20° C. for single use. Nigericin is diluted in ice cold 100% ethanol to 5 mg/ml (6.7 mM) and stored in 75 µL aliquots at -20° C. for single use. Serum-free media contains RPMI 1640 medium (99%), Pen/Strep (1%), and 2-mercaptoethanol (0.05 mM). The two control conditions used to qualify and normalize test compound dose-response curves were as follows: High Control = 25 ng/mL LPS, 5 µM Nigericin, 0.5% DMSO, Low Control = 25 ng/mL, LPS, 0.5% DMSO.
THP-1 cells were diluted to provide a suspension at a concentration of 1.0×10^6 cells/mL with the total volume of suspension required to enable the desired number of assay plates. The growth media was supplemented with PMA (5 ng/mL final concentration) and the cells were incubated at 37° C. under a humidified atmosphere of 5% CO2 for 40 h.
All media was carefully aspirated from each culture flask. The cells were washed carefully with 1x DPBS. The cells were then briefly digested with trypsin LE for 5 minutes at 23° C. and immediately resuspended in cell growth media. After resuspension, the cells were centrifuged at 1000 rpm for 3 minutes and the supernatant was discarded. The cells were resuspended in DPBS and once again centrifuged at 1000 rpm for 5 minutes. The supernatant was discarded and the cell pellet was resuspended in serum-free media supplemented with LPS (25 ng/mL final concentration) to enable the distribution of 30 K THP-1 cells within 45 µL of media into each well of 384-well PDL-coated plates. The 384-well plates were then incubated at 37° C. under a humidified atmosphere of 5% CO2 for 2 h. Following this period, test compounds were dispensed by Tecan across the desired concentration range with all wells normalized to a final 0.5 % DMSO concentration. The plates were then then incubated at 37° C. under a humidified atmosphere of 5% CO2 for 1 h. Following this period, 5 µL of the […] nigericin stock solution was added to each of the appropriate wells and plates were centrifuged at 1000 rpm for 30 seconds. The plates were the immediately reintroduced to the incubator at 37° C. under a humidified atmosphere of 5% CO2 for 2 h. After this time, 35 µL/well of supernatant was collected and transferred into v-bottom plate and centrifuged at 1000 rpm for 1 minute. These supernatant aliquots were analyzed using an IL-Iβ detection kit as described below. If needed, the test samples could be snap frozen and stored at -80° C. until analyzed.
To prepare each ELISA plate, capture antibody (mAb Mt175) was diluted with PBS to a final concentration of 2 µg/mL and then 20 µL of this solution was added to each well of the ELISA plate. Each plate was allowed to incubate overnight at 4° C. The next day, the capture antibody solution was removed and discarded. Each ELISA plate was washed 4 times with PBST followed by the addition of 25 µL/well of blocking buffer (Licor-927-40010) supplemented with 0.1% Tween 20. Each ELISA plate was then allowed to incubate for 1 hour at 23° C. […]

Where [1] appears, read: Homo sapiens, THP-1, inhibition of IL-1β secretion, class column of Table 3.
The mark [2] stands for this setting: Homo sapiens, THP-1, inhibition of IL-1β secretion, numeric column of Table 3.

`O=C(Cn1nc(OC(F)C2CC2)c2cc(Br)ccc2c1=O)Nc1ncc(F)cn1` (stereo not shown) [Example 168, 2-[6-bromo-4-[cyclopropyl(fluoro)methoxy]-1-oxophthalazin-2-yl]-N-(5-fluoropyrimidin-2-yl)acetamide] returned an IC50 under setting [1] greater than 15 µM and an IC50 under setting [2] of 17.1 µM.
As for `O=C(Cn1nc(C(F)F)c2c(F)c(C3CC3)ccc2c1=O)Nc1ncc(F)cn1` [Example 184, 2-[6-cyclopropyl-4-(difluoromethyl)-5-fluoro-1-oxophthalazin-2-yl]-N-(5-fluoropyrimidin-2-yl)acetamide], the IC50 is less than 10 µM under setting [1] and 0.179 µM under setting [2].
For the compound `O=C(Cn1nc(C(F)F)c2cc(C(F)(F)F)ccc2c1=O)Nc1ncc(F)cn1` [Example 25, 2-[4-(difluoromethyl)-1-oxo-6-(trifluoromethyl)phthalazin-2-yl]-N-(5-fluoropyrimidin-2-yl)acetamide], the IC50 was less than 10 µM under setting [1] and 0.689 µM under setting [2].
As to `CC(C)c1nn(CC(=O)NCc2ccccc2)c(=O)c2ccc(Br)cc12` [Example 129, N-benzyl-2-(6-bromo-1-oxo-4-propan-2-ylphthalazin-2-yl)acetamide], the IC50 is, setting by setting: under setting [1], less than 10 µM; under setting [2], 20.1 µM.
On to `CO[C@H]1C[C@H](Oc2nn(CC(=O)Nc3ncc(F)cn3)c(=O)c3ccc(Br)cc23)C1` [Example 160], for which the IC50 under setting [1] is less than 10 µM and the IC50 under setting [2] is 1.32 µM.
In the same order, the values of `CC(C)c1nn(CC(=O)Nc2cnccn2)c(=O)c2ccc(Br)cc12` [Example 71, 2-(6-bromo-1-oxo-4-propan-2-ylphthalazin-2-yl)-N-pyrazin-2-ylacetamide] are less than 10 µM and 0.499 µM.
In the same order, the values of `CC(C)Oc1nn(CC(=O)Nc2ncc(F)cn2)c(=O)c2ccc(Br)cc12` [Example 155, 2-(6-bromo-1-oxo-4-propan-2-yloxyphthalazin-2-yl)-N-(5-fluoropyrimidin-2-yl)acetamide] are less than 10 µM and 5.95 µM.
Take `O=C(Cn1nc(OC2COC2)c2cc(Br)ccc2c1=O)Nc1ncc(F)cn1` [Example 161]: the IC50 was less than 10 µM under setting [1] and 3.63 µM under setting [2].
As for `CO[C@H]1C[C@@H](NC(=O)Cn2nc(C(C)C)c3cc(Br)ccc3c2=O)C1` [Example 77, 2-(6-bromo-1-oxo-4-propan-2-ylphthalazin-2-yl)-N-(3-cis-methoxycyclobutyl)acet amide], the IC50 under setting [1] was less than 10 µM and the IC50 under setting [2] was determined as 3.85 µM.
On the same counts, the results for `O=C(Cn1nc(OC2CCC2)c2cc(Br)ccc2c1=O)Nc1ncc(F)cn1` [Example 153, 2-(6-bromo-4-cyclobutyloxy-1-oxophthalazin-2-yl)-N-(5-fluoropyrimidin-2-yl)acetamide] are less than 10 µM and 0.147 µM.
For `COc1nn(CC(=O)Nc2ncc(F)cn2)c(=O)c2ccc(Br)c(F)c12` [Example 140, 2-(6-bromo-5-fluoro-4-methoxy-1-oxophthalazin-2-yl)-N-(5-fluoropyrimidin-2-yl)acetamide], the IC50 by setting is: under setting [1], less than 10 µM; under setting [2], 0.087 µM.
`O=C(Cn1nc([C@H]2C[C@H]2F)c2cc(Br)ccc2c1=O)Nc1ncc(F)cn1` (single isomer, unassigned) [Example 165, 2-[6-bromo-4-[2-cis-fluorocyclopropyl]-1-oxophthalazin-2-yl]-N-(5-fluoropyrimidin-2-yl)acetamide]: the IC50 by setting is: under setting [1], less than 10 µM; (inhibition of IL-1β secretion, numeric column of Table 3) 0.613 µM.
With `O=C(Cn1nc(C(F)CF)c2cc(Br)ccc2c1=O)Nc1ncc(F)cn1` (stereo not shown) [Example 139, 2-[6-bromo-4-(1,2-difluoroethyl)-1-oxophthalazin-2-yl]-N-(5-fluoropyrimidin-2-yl)acetamide], the IC50 under setting [1] was less than 10 µM and 0.318 µM corresponded to half-maximal inhibition under setting [2] (IC50).
In the same order, the values of `CC(C)c1nn(CC(=O)NC(C)C2CCC2)c(=O)c2ccc(Br)cc12` (stereo not shown) [Example 76, 2-(6-bromo-1-oxo-4-propan-2-ylphthalazin-2-yl)-N-(1-cyclobutylethyl)acetamide] are less than 10 µM and 8.06 µM.
`CC(C)c1nn(CC(=O)NC2CCC(F)(F)C2)c(=O)c2ccc(Br)cc12` (stereo not shown) [Example 42, 2-(6-bromo-1-oxo-4-propan-2-ylphthalazin-2-yl)-N-(3,3-difluorocyclopentyl)acet amide] had an IC50 under setting [1] of less than 10 µM and an IC50 under setting [2] of 3.35 µM.
In the same order, the values of `CC(C)c1nn(CC(=O)Nc2ccnn2C2CCC2)c(=O)c2ccc(Br)cc12` [Example 123, 2-(6-bromo-1-oxo-4-propan-2-ylphthalazin-2-yl)-N-(2-cyclobutylpyrazol-3-yl)acetamide] are less than 10 µM and 2.13 µM.
`Cc1cc(NC(=O)Cn2nc(C(C)C)c3cc(Br)ccc3c2=O)n(C)n1` [Example 64, 2-(6-bromo-1-oxo-4-propan-2-ylphthalazin-2-yl)-N-(2,5-dimethylpyrazol-3-yl)acetamide] registered an IC50 under setting [1] of less than 10 µM and an IC50 under setting [2] of 0.392 µM.
In the same order, the values of `CC(C)c1nn(CC(=O)Nc2ccncn2)c(=O)c2ccc(Br)cc12` [Example 33, 2-(6-bromo-1-oxo-4-propan-2-ylphthalazin-2-yl)-N-pyrimidin-4-ylacetamide] are less than 10 µM and 0.176 µM.
`CC1CC(NC(=O)Cn2nc(C(C)C)c3cc(Br)ccc3c2=O)CCO1` (stereo not shown) [Example 43, 2-(6-bromo-1-oxo-4-propan-2-ylphthalazin-2-yl)-N-(2-methyloxan-4-yl)acetamide] displayed an IC50 under setting [1] of less than 10 µM and an IC50 under setting [2] of 4.23 µM.
In the case of `CN(C)c1ccc2c(=O)n(CC(=O)Nc3ncc(F)cn3)nc(Br)c2c1` [Example 180, 2-[4-bromo-6-(dimethylamino)-1-oxophthalazin-2-yl]-N-(5-fluoropyrimidin-2-yl)acetamide], the IC50 runs as follows: under setting [1], less than 10 µM; under setting [2], 4.86 µM.
On the same counts, the results for `CC(C)c1nn(CC(=O)NC2CCOC(C)(C)C2)c(=O)c2ccc(Br)cc12` (stereo not shown) [Example 60, 2-(6-bromo-1-oxo-4-propan-2-ylphthalazin-2-yl)-N-(2,2-dimethyloxan-4-yl)acetamide] are less than 10 µM and 1.41 µM.
On the same counts, the results for `Cc1cnc(NC(=O)Cn2nc(C(C)C)c3cc(Br)ccc3c2=O)c(F)c1` [Example 124, 2-(6-bromo-1-oxo-4-propan-2-ylphthalazin-2-yl)-N-(3-fluoro-5-methylpyridin-2-yl)acetamide] are less than 10 µM and 1.03 µM.
On to `N#Cc1cnc(NC(=O)Cn2nc(C(F)F)c3cc(Br)ccc3c2=O)nc1` [Example 136], for which the IC50 runs as follows: under setting [1], less than 10 µM; under setting [2], 0.181 µM.
With `CC(C)c1nn(CC(=O)N[C@H]2C[C@@](C)(O)C2)c(=O)c2cc(Br)ccc12` [Example 2, 2-(7-Bromo-4-isopropyl-1-oxophthalazin-2(1H)-yl)-N-(cis-3-hydroxy-3-methylcyclobutyl)acetamide], the IC50 is, setting by setting: under setting [1], less than 10 µM; under setting [2], 2.11 µM.
With `CCOc1nn(CC(=O)Nc2ncc(F)cn2)c(=O)c2ccc(Br)cc12` [Example 154, 2-(6-bromo-4-ethoxy-1-oxophthalazin-2-yl)-N-(5-fluoropyrimidin-2-yl)acetamide], the IC50 is, setting by setting: under setting [1], less than 10 µM; under setting [2], 0.68 µM.
For `O=C(Cn1nc(C(F)F)c2c(F)c(Br)ccc2c1=O)Nc1ncc(Cl)cn1` [Example 182], the IC50 runs as follows: under setting [1], less than 10 µM; under setting [2], 0.068 µM.
